The target of this experiment is Human TASK-1 channels (Homo sapiens (Human), UniProt O14649). The experiment is described as follows: Determination of the activity on the TASK-1 channel in Xenopus oocytes (two-microelectrode voltage clamp). Type of experiment: cell-based. The conditions noted are these: for pIC50: human TASK-1 expressed in Xenopus oocytes, room temperature, read-out: IC50 value for TASK-1 inhibition. The essentials: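 Current during 500 ms pulses to 40 mV from a −90 mV hold was recorded in oocytes expressing human TASK-1 for two days after cRNA injection. Compounds were added cumulatively to the ND96 bath (pH 7.4, room temperature). IC50 came from dose-response fitting of inhibition relative to pre-compound current.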

Each structure is given as a SMILES string. pIC50: −log10 of the molar value.

The values below come from patent US9284333B2, “Fused pyrroledicarboxamides and their use as pharmaceuticals” (SANOFI, priority 2012, dated 2016).

Sequence of Human TASK-1 channels (O14649 whole entry): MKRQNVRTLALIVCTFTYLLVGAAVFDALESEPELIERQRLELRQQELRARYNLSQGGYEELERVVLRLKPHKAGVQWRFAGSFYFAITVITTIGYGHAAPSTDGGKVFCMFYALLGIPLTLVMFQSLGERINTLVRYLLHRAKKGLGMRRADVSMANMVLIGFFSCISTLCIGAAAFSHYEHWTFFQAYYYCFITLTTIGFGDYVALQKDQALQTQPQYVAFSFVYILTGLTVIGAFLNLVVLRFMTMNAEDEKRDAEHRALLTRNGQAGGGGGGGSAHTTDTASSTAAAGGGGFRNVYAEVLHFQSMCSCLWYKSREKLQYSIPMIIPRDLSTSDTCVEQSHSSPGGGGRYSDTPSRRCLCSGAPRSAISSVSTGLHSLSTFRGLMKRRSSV

In the case of `CC[C@@H](NC(=O)c1cc(C(=O)N2CCC[C@@H]2COC)c2n1CCOC2)c1ccccc1` [16kk, 8-((R)-2-Methoxymethyl-pyrrolidine-1-carbonyl)-3,4-dihydro-1H-pyrrolo[2,1-c][1,4]oxazine-6-carboxylic acid ((R)-1-phenyl-propyl)-amide], the pIC50 (as a rule, the negative decadic logarithm of the IC50, by convention in mol/L) is 6.89. Turning to `CC[C@@H](NC(=O)c1cc(C(=O)N2CCC[C@@H]2C(C)C)c2n1CCOC2)c1ccccc1` [16kl, 8-((R)-2-Isopropyl-pyrrolidine-1-carbonyl)-3,4-dihydro-1H-pyrrolo[2,1-c][1,4]oxazine-6-carboxylic acid ((R)-1-phenyl-propyl)-amide], the pIC50 is 6.68. In the case of `CC[C@@H](NC(=O)c1cc(C(=O)N2CCC[C@H]2C(C)C)c2n1CCOC2)c1ccccc1` [16km, 8-((S)-2-Isopropyl-pyrrolidine-1-carbonyl)-3,4-dihydro-1H-pyrrolo[2,1-c][1,4]oxazine-6-carboxylic acid ((R)-1-phenyl-propyl)-amide], the negative-log IC50 (pIC50) was 6.41. Still for that read-out and setting: in the case of `CC[C@@H](NC(=O)c1cc(C(=O)N[C@H](C)c2cnccn2)c2n1CCOC2)c1ccc(F)cc1Cl` [16kn, 3,4-Dihydro-1H-pyrrolo[2,1-c][1,4]oxazine-6,8-dicarboxylic acid 6-{[(R)-1-(2-chloro-4-fluoro-phenyl)-propyl]-amide} 8-[((R)-1-pyrazin-2-yl-ethyl)-amide]] it was 6.89. For `CC[C@@H](NC(=O)c1cc(C(=O)NCc2cnccn2)c2n1CCOC2)c1ccc(F)cc1Cl` [16ko, 3,4-Dihydro-1H-pyrrolo[2,1-c][1,4]oxazine-6,8-dicarboxylic acid 6-{[(R)-1-(2-chloro-4-fluoro-phenyl)-propyl]-amide} 8-[(pyrazin-2-ylmethyl)-amide]], the pIC50 is 6.51. Take `CC[C@@H](NC(=O)c1cc(C(=O)NC(C)c2ncccn2)c2n1CCOC2)c1ccc(F)cc1Cl` (stereo partly drawn) [16kp, 3,4-Dihydro-1H-pyrrolo[2,1-c][1,4]oxazine-6,8-dicarboxylic acid 6-{[(R)-1-(2-chloro-4-fluoro-phenyl)-propyl]-amide} 8-[(1-pyrimidin-2-yl-ethyl)-amide]]: the pIC50 is 6.55.

Consider `CC[C@@H](NC(=O)c1cc(C(=O)N2CCC[C@@H]2C)n2c1SCC2)c1ccccc1` [16ks, 5-((S)-2-Methyl-pyrrolidine-1-carbonyl)-2,3-dihydro-pyrrolo[2,1-b]thiazole-7-carboxylic acid ((R)-1-phenyl-propyl)-amide], for which the pIC50 was 7.43. `CC[C@@H](NC(=O)c1cc(C(=O)N[C@H](C)c2ccc(F)cc2)n2c1SCC2)c1ccccc1` [16kt, 2,3-Dihydro-pyrrolo[2,1-b]thiazole-5,7-dicarboxylic acid 5-{[(R)-1-(4-fluoro-phenyl)-ethyl]-amide} 7-[((R)-1-phenyl-propyl)-amide]]: the pIC50 was 7.57. As for `CC[C@@H](NC(=O)c1cc(C(=O)N[C@H](C)c2ccc(F)cc2)c2n1CCS2)c1ccccc1` [16ku, 2,3-Dihydro-pyrrolo[2,1-b]thiazole-5,7-dicarboxylic acid 7-{[(R)-1-(4-fluoro-phenyl)-ethyl]-amide} 5-[((R)-1-phenyl-propyl)-amide]], the pIC50 is 7.06. Turning to `CC[C@@H](NC(=O)c1cc(C(=O)N[C@H](CC)c2ccccc2)n2c1SCC2)c1ccccc1` [16kv, 2,3-Dihydro-pyrrolo[2,1-b]thiazole-5,7-dicarboxylic acid bis-[((R)-1-phenyl-propyl)-amide]], the pIC50 was 6.49. On the same count and under the same terms, under `CC[C@@H](NC(=O)c1cc(C(=O)N[C@H](C)c2ccc(F)cc2)c2n1CSC2)c1ccccc1` [16kw, 1H-Pyrrolo[1,2-c]thiazole-5,7-dicarboxylic acid 7-{[(R)-1-(4-fluoro-phenyl)-ethyl]-amide} 5-[((R)-1-phenyl-propyl)-amide]] stands 7.02; under `CC[C@@H](NC(=O)c1cc(C(=O)N2CCC[C@@H]2C)c2n1CSC2)c1ccccc1` [16kx, 7-((S)-2-Methyl-pyrrolidine-1-carbonyl)-1H-pyrrolo[1,2-c]thiazole-5-carboxylic acid ((R)-1-phenyl-propyl)-amide], 7.00; under `CC[C@@H](NC(=O)c1cc(C(=O)N[C@H](C)c2ccc(F)cc2)n2c1CSC2)c1ccccc1` [16ky, 1H-Pyrrolo[1,2-c]thiazole-5,7-dicarboxylic acid 5-{[(R)-1-(4-fluoro-phenyl)-ethyl]-amide} 7-[((R)-1-phenyl-propyl)-amide]], 7.48.

Regarding `CC[C@@H](NC(=O)c1cc(C(=O)N2CCC[C@@H]2C)n2c1CSCC2)c1ccccc1` [16kz, 6-((S)-2-Methyl-pyrrolidine-1-carbonyl)-3,4-hihydro-1H-pyrrolo[2,1-c][1,4]thiazine-8-carboxylic acid ((R)-1-phenyl-propyl)-amide], the pIC50 is 6.57. As for `CCOC(=O)[C@H](C)N(C)C(=O)c1cc(C(=O)N[C@H](CC)c2ccccc2)c2n1CCOC2` [16l, (S)-2-{Methyl-[8-((R)-1-phenyl-propylcarbamoyl)-3,4-dihydro-1H-pyrrolo[2,1-c][1,4]oxazine-6-carbonyl]-amino}-propionic acid ethyl ester], the pIC50 is 6.77. For the compound `CC[C@@H](NC(=O)c1cc(C(=O)N[C@H](C)c2ccc(F)cc2)n2c1CSCC2)c1ccccc1` [16la, 3,4-Dihydro-1H-pyrrolo[2,1-c][1,4]thiazine-6,8-dicarboxylic acid 6-{[(R)-1-(4-fluoro-phenyl)-ethyl]-amide} 8-[((R)-1-phenyl-propyl)-amide]], the pIC50 is 6.82. Still for that read-out and setting: in the case of `CC[C@@H](NC(=O)c1cc(C(=O)N[C@H](CC)c2ncccn2)c2n1CCOC2)c1ccc(C(F)(F)F)cc1` [16lb, 3,4-Dihydro-1H-pyrrolo[2,1-c][1,4]oxazine-6,8-dicarboxylic acid 8-[((R)-1-pyrimidin-2-yl-propyl)-amide] 6-{[(R)-1-(4-trifluoromethyl-phenyl)-propyl]-amide}] it was 7.19; in that of `CC[C@@H](NC(=O)c1cc(C(=O)NCC2CC2)n2c1COCC2)c1ccccc1Cl` [16ld, 3,4-Dihydro-1H-pyrrolo[2,1-c][1,4]oxazine-6,8-dicarboxylic acid 8-{[(R)-1-(2-chloro-phenyl)-propyl]-amide} 6-cyclopropylmethyl-amide], 7.10; in that of `CC[C@@H](NC(=O)c1cc(C(=O)N2CCC[C@@H]2C)n2c1C(C)OCC2)c1ccccc1` (stereo partly drawn) [16lf, 1-Methyl-6-((S)-2-methyl-pyrrolidine-1-carbonyl)-3,4-dihydro-1H-pyrrolo[2,1-c][1,4]oxazine-8-carboxylic acid ((R)-1-phenyl-propyl)-amide], 6.96.

`CC[C@@H](NC(=O)c1cc(C(=O)N[C@H](CC)c2ccc(F)cc2)n2c1C(C)OCC2)c1ccccc1` (some centres unmarked) [16lh]: the pIC50 is 6.72. For the compound `CC[C@@H](NC(=O)c1cc(C(=O)NCc2cnccn2)n2c1C(C)OCC2)c1ccccc1` (stereo partly drawn) [16li, 1-Methyl-3,4-dihydro-1H-pyrrolo[2,1-c][1,4]oxazine-6,8-dicarboxylic acid 8-[((R)-1-phenyl-propyl)-amide] 6-[(pyrazin-2-ylmethyl)-amide]], the pIC50 is 6.05. With `CC(C)[C@@H](NC(=O)c1cc(C(=O)N2CCC[C@@H]2C)c2n1CCOC2)c1ccc(F)cc1` [16lj, 8-((S)-2-Methyl-pyrrolidine-1-carbonyl)-3,4-dihydro-1H-pyrrolo[2,1-c][1,4]oxazine-6-carboxylic acid [(R)-1-(4-fluoro-phenyl)-2-methyl-propyl]-amide], the pIC50 is 6.70.

For `CC(NC(=O)c1cc(C(=O)N[C@@H](c2ccc(F)cc2)C(C)C)n2c1COCC2)c1ccno1` (stereo partly drawn) [16lk, 3,4-Dihydro-1H-pyrrolo[2,1-c][1,4]oxazine-6,8-dicarboxylic acid 6-{[(R)-1-(4-fluoro-phenyl)-2-methyl-propyl]-amide} 8-[(1-isoxazol-5-yl-ethyl)-amide]], the pIC50 was 6.51. `CC(C)[C@@H](NC(=O)c1cc(C(=O)NCc2ncco2)c2n1CCOC2)c1ccc(F)cc1` [16ll, 3,4-Dihydro-1H-pyrrolo[2,1-c][1,4]oxazine-6,8-dicarboxylic acid 6-{[(R)-1-(4-fluoro-phenyl)-2-methyl-propyl]-amide} 8-[(oxazol-2-ylmethyl)-amide]]: testing at 5 µM (compound concentration 5 μM) gave an inhibition of 86%. In the case of `CC(C)[C@@H](NC(=O)c1cc(C(=O)N2CCCC2)c2n1CCOC2)c1ccc(F)cc1` [16lm, 8-(Pyrrolidine-1-carbonyl)-3,4-dihydro-1H-pyrrolo[2,1-c][1,4]oxazine-6-carboxylic acid [(R)-1-(4-fluoro-phenyl)-2-methyl-propyl]-amide], the negative logarithm of the IC50 (pIC50) was 6.57. For the compound `COC(=O)[C@H]1CCCN1C(=O)c1cc(C(=O)N[C@@H](c2ccc(F)cc2)C(C)C)n2c1COCC2` [16ln, (R)-1-{6-[(R)-1-(4-Fluoro-phenyl)-2-methyl-propylcarbamoyl]-3,4-dihydro-1H-pyrrolo[2,1-c][1,4]oxazine-8-carbonyl}-pyrrolidine-2-carboxylic acid methyl ester], the pIC50 was 6.85.

For the compound `CC(C)[C@@H](NC(=O)c1cc(C(=O)NCc2cnccn2)c2n1CCOC2)c1ccc(F)cc1` [16lo, 3,4-Dihydro-1H-pyrrolo[2,1-c][1,4]oxazine-6,8-dicarboxylic acid 6-{[(R)-1-(4-fluoro-phenyl)-2-methyl-propyl]-amide} 8-[(pyrazin-2-ylmethyl)-amide]], the pIC50 is 6.38. Regarding `CC[C@@H](NC(=O)c1cc(C(=O)N[C@@H](C)c2ccc(F)cc2)n2c1CCCC2)c1ccccc1` [16lt, 5,6,7,8-Tetrahydro-indolizine-1,3-dicarboxylic acid 3-{[(S)-1-(4-fluoro-phenyl)-ethyl]-amide} 1-[((R)-1-phenyl-propyl)-amide]], the pIC50 is 7.24.

Consider `CC(NC(=O)c1cc(C(=O)N[C@H](C)c2ccc(F)cc2)n2c1CCCC2)c1ncccn1` (stereo partly drawn) [16lu, 5,6,7,8-Tetrahydro-indolizine-1,3-dicarboxylic acid 3-{[(R)-1-(4-fluoro-phenyl)-ethyl]-amide} 1-[(1-pyrimidin-2-yl-ethyl)-amide]], for which the pIC50 was 6.35.
